Data published in patent US8058295B2, “Cystic fibrosis transmembrane conductance regulator protein inhibitors and uses thereof” (The Regents of the University of California, priority 2002, dated 2011).

What was measured:
[1] = test system: intestinal fluid absorption; assay: Fluid absorption in mouse closed intestinal loops; type: in vivo, mice; settings: 20 μg intraperitoneal, measured at 30 min
Procedure: FIG. 10 is a set of graphs providing the results of characterization of the mouse closed-intestinal loop model. Panel A (FIG. 10A): Intestinal loops were injected with 200 μL buffer and loop weight measured at indicated times (mean±SEM, 4 mice per time point). […] Inset (top) Chemical structure of CFTRinh-172. Panel B (FIG. 10B): Time course of cholera toxin-induced fluid secretion in mouse closed-loop model. […] Data for injected loops (1 μg cholera toxin/loop) as mean±SEM (4-6 mice).
First, the kinetics of intestinal loop fluid absorption and secretion were determined to characterize the mouse model. To study absorption, loop fluid content was measured at specified times after injection of 200 μL of PBS into individual loops. […] To study secretion, intestinal loops were injected with cholera toxin (1 μg in 0.1 mL PBS).

CFTR Cl^− channel = molecular target: T1, CFTR Cl^− channel (Rattus norvegicus, UniProt P34158); assay: Short-circuit current in isolated rat colonic mucosa; settings: 5 μM to the mucosal solution alone, after amiloride and forskolin 20 μM
T1 construct: from tissue; host or cells: rat colon mucosa

CFTR [2] = molecular target: T2, CFTR (Homo sapiens, UniProt P13569); assay: Short-circuit current in T84 colonic epithelial cells
wildtype CFTR = wildtype CFTR (Homo sapiens, UniProt P13569); assay: YFP fluorescence assay of CFTR-mediated I^− transport in FRT cells; type: cell-based; set-up: expressed in transfected cells; host or cells: Fischer rat thyroid (FRT) cells
[3] = test system: Volume-sensitive Cl^− channels; assay: Volume-activated Cl^− current, whole-cell patch clamp in FRT cells; type: cell-based, rat; settings: 5 μM; 250 mosM/kg hypotonic solution
Source text: FIG. 4B is a graphical representation of volume-activated Cl^− current (hypotonic 250 mosM/kg H2O) measured in whole-cell patch clamp experiments on FRT cells.

water channel (AQP1) = molecular target: T3, water channel (AQP1) (Homo sapiens, UniProt P29972); assay: Water channel block; settings: 5 μM
T3 sequence (P29972 1-269): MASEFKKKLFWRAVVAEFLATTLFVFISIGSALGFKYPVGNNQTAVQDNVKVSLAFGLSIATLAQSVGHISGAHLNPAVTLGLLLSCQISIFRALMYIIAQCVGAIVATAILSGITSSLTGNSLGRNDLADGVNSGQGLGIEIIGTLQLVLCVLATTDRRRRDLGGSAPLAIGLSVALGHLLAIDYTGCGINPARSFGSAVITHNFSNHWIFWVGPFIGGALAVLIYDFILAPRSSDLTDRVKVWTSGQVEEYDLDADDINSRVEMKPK

[4] = molecular target: T4, Cl^−/HCO3^− exchanger (AE1) (Homo sapiens, UniProt P02730); assay: Cl^−/HCO3^− exchanger block; settings: 5 μM
T4 sequence (P02730 1-911): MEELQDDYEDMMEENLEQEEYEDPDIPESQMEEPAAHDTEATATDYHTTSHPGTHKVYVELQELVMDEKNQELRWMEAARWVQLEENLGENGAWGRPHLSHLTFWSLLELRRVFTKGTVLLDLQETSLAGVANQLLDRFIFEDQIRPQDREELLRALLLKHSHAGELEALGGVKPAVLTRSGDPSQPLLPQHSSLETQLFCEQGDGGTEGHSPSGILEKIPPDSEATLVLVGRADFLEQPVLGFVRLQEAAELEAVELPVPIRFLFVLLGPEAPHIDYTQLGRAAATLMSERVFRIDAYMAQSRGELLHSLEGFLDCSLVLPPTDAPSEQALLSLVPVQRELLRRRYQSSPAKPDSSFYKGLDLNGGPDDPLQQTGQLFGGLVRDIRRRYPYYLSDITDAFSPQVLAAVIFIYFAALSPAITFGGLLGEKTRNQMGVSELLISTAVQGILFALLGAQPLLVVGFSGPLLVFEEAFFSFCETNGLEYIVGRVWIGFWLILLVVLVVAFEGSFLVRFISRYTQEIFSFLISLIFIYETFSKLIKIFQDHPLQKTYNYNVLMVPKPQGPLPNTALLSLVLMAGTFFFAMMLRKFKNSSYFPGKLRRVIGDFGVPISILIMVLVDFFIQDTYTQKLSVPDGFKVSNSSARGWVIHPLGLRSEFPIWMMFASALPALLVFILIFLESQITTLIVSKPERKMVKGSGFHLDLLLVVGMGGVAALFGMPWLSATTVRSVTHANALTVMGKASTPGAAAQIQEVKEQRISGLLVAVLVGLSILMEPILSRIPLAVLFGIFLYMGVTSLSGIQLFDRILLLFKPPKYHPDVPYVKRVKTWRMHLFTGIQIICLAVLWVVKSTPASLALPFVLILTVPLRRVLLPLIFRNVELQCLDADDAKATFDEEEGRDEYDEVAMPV

[5] = Tissue distribution in rats after intravenous bolus; type: in vivo; settings: 60 min after i.v. bolus
Procedure: A bolus of ^14C-CFTRinh-172 (2 μCi) was administered intravenously over 1 min in mice (male CD1 mice, 30-35 grams) by tail vein. Mice were sacrificed at 5, 30, 120 and 240 min. Organs were removed, weighed and homogenized in distilled water (10-50 vol %). Radioactivity was determined by scintillation counting of the homogenates (25-50 μL) and expressed as total ^14C-radioactivity per organ (or per gram tissue for skeletal muscle). At the same time blood, urine and bile (from gallbladder or duodenum) were collected and ^14C-radioactivity was measured and expressed per mL of fluid. Elimination studies were done by collections of urine and stool over the first 24 hr after ^14C-CFTRinh-172 administration. Tissue distribution studies were also done on rats prepared as for pharmacokinetic studies.

CFTR [6] = molecular target: T2, CFTR
[7] = molecular target: T5, ATP-sensitive K^+ channels (Rattus norvegicus, UniProt Q09429); assay: Membrane potential recording in INS-1 pancreatic β cells (K-ATP channels); type: cell-based
T5 construct: endogenous in cells; host or cells: INS-1 rat pancreatic β cell line

CFTR [8] = molecular target: T2, CFTR; assay: Electrophysiological studies in Calu-3 cells; type: cell-based; set-up: cells that natively express wildtype CFTR, including T84 cells; endogenous in cells; host or cells: T84 colonic epithelial cells (UCSF cell culture facility); settings: read-out: apparent potency in electrophysiological studies

Sequence of wildtype CFTR (P13569 whole entry): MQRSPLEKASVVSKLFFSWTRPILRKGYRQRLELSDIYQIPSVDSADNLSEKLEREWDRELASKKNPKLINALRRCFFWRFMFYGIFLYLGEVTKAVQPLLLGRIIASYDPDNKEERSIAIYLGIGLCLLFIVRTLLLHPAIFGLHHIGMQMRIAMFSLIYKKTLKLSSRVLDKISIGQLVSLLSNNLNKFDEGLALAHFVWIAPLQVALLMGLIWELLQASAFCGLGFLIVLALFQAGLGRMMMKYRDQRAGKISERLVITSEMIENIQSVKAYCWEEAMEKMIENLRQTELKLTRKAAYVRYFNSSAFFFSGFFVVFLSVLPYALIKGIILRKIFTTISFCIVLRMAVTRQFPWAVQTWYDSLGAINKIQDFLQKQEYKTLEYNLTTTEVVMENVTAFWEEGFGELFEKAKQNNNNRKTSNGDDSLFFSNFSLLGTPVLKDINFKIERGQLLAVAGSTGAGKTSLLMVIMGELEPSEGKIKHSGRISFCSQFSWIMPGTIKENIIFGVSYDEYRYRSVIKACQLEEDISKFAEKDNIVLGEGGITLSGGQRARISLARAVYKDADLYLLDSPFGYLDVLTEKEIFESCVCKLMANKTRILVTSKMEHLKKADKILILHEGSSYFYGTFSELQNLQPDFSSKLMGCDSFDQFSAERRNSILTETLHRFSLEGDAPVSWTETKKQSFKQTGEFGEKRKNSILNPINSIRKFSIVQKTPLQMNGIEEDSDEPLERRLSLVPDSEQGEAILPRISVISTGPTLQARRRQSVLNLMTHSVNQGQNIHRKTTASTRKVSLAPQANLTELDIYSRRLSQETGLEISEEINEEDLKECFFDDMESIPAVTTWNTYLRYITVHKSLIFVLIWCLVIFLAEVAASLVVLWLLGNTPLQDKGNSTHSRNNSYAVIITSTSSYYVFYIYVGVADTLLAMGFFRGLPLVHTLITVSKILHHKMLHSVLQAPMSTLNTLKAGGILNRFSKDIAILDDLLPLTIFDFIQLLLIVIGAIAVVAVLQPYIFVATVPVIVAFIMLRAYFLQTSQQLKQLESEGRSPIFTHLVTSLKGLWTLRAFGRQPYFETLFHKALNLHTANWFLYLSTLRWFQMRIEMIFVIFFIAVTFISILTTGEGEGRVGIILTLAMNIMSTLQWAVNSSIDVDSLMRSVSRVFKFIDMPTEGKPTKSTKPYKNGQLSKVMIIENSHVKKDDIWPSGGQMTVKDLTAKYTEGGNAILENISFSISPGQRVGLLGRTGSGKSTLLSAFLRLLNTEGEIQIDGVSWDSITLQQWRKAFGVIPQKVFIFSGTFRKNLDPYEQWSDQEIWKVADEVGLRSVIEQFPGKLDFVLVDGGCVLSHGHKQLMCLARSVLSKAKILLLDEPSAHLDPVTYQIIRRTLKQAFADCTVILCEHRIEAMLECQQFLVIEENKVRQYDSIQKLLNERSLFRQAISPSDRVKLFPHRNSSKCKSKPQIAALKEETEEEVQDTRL
T2 sequence (P13569 whole entry): as above
T5 sequence (Q09429 whole entry): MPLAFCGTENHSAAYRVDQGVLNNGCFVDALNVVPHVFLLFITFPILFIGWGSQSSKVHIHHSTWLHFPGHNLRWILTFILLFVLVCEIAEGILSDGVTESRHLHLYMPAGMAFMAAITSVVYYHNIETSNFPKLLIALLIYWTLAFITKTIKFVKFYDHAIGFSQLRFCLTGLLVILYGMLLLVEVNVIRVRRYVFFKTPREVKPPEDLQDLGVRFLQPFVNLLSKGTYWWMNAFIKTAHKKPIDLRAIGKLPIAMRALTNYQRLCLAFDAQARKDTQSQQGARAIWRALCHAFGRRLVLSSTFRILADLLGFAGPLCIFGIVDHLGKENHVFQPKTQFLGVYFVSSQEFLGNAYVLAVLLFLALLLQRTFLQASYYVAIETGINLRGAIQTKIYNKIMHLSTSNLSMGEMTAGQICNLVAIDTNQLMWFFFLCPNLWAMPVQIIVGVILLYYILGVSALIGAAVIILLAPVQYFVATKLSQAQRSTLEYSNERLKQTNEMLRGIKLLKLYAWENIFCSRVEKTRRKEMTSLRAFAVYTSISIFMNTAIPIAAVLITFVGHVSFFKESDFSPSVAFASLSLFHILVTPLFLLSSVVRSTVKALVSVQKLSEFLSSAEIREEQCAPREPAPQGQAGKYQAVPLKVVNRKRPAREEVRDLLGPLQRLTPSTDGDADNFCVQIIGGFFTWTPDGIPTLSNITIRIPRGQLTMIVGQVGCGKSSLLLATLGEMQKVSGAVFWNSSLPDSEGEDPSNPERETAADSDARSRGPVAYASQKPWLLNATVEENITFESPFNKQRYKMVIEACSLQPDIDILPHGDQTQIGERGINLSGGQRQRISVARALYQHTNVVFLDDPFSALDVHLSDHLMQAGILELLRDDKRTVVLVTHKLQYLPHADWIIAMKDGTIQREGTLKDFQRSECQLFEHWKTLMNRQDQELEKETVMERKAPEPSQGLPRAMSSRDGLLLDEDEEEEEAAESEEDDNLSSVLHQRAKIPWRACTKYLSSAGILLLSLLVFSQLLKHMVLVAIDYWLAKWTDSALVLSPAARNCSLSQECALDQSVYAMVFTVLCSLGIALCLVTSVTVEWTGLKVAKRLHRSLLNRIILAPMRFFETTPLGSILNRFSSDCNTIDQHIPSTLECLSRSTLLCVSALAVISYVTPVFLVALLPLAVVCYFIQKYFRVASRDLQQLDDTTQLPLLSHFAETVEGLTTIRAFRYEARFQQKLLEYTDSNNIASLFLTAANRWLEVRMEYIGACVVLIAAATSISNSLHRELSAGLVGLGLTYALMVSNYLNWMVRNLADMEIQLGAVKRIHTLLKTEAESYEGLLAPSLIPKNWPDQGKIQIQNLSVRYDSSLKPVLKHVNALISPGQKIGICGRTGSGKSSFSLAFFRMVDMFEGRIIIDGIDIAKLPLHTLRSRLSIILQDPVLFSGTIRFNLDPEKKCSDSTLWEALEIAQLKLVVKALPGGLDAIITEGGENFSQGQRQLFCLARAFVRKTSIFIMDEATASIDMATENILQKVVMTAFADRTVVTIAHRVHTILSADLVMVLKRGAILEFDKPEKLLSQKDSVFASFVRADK
T5 sequence (P70673 whole entry partner): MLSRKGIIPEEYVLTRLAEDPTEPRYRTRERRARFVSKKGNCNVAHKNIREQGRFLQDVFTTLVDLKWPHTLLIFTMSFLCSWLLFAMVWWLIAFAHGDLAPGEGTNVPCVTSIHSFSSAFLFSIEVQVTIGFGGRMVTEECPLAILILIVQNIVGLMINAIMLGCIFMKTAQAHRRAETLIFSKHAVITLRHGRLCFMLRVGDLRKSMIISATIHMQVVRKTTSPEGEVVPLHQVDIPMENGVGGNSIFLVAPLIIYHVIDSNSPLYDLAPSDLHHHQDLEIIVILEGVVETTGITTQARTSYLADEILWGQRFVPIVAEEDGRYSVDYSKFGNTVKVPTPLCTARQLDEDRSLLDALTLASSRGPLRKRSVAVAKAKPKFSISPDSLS
T1 sequence (P34158 whole entry): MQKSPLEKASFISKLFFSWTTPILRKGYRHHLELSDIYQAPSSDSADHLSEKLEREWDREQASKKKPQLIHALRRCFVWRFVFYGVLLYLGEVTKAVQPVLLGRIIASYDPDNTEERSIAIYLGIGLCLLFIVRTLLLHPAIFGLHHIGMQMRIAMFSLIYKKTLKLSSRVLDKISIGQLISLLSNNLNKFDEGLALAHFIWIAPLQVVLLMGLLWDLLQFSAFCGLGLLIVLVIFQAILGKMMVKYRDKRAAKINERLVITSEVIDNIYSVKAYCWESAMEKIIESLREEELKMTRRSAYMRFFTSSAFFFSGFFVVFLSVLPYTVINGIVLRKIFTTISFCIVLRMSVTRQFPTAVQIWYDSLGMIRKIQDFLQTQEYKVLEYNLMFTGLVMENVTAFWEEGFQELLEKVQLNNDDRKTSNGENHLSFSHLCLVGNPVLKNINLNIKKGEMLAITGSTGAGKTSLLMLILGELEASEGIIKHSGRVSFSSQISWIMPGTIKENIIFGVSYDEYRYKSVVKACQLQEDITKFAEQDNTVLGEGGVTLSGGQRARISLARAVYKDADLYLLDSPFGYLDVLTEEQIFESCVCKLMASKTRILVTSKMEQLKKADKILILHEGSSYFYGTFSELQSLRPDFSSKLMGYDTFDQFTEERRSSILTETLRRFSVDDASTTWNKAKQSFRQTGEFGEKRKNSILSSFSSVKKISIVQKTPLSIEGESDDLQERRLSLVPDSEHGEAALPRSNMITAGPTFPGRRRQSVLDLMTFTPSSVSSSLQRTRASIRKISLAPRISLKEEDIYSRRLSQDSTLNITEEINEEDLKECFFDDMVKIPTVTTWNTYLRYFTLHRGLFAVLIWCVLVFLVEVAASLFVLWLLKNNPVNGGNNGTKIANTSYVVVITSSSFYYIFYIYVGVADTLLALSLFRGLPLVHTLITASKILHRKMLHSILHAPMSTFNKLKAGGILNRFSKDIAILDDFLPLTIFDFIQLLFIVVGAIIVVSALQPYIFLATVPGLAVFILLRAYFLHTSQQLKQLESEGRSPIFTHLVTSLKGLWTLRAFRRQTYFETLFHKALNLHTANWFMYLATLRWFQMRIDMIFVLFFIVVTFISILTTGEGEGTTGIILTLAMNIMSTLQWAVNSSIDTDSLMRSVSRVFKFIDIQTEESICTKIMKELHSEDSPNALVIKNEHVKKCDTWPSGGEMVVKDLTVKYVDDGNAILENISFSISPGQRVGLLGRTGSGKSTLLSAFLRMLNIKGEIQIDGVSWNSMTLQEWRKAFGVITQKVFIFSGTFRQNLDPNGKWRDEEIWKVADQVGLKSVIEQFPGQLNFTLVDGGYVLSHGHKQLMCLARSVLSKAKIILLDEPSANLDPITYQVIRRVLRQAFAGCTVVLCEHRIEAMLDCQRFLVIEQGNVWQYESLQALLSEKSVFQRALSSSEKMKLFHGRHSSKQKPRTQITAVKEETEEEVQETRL

## O=C(O)c1ccc(/C=C2\SC(=S)N(c3cccc(C(F)(F)F)c3)C2=O)cc1 [CFTRinh-172, 3-[(3-trifluoromethyl)phenyl]-5-[(4-carboxyphenyl)methylene]-2-thioxo-4-thiazolidinone]
[1]
  rate of fluid absorption: did not alter the rate of fluid absorption
CFTR Cl^− channel
  reduction of short-circuit current: > 80%
CFTR [2]
  IC50: ~3000 nM
CFTR [2]; KI, cells depolarized by high-K^+ basolateral solution
  Ki: ~300 nM
CFTR [2]; apparent KI, after basolateral permeabilization with amphotericin B, Cl^− gradient
  Ki: 300 nM
CFTR [2]; apparent KI, non-permeabilized T84 cells
  Ki: ~3000 nM
Wildtype CFTR; 5 μM inhibitor, genistein, CPT-cAMP, CPX, 8-MPO, UCCF-029, UCCF-853 (all 50 μM)
  inhibition of CFTR activation by other agonists: effectively inhibited
Wildtype CFTR; after addition of 2 μM
  t1/2 of inhibition: 4 min
  time to complete inhibition: ~10 min
Wildtype CFTR; washout of 1 μM
  t1/2 of inhibition reversal after washout: ~5 min
[3]
  block of volume-activated Cl^− currents: did not block
Water channel (AQP1)
  block of water channel (AQP1): did not block
[4]
  block of Cl^−/HCO3^− exchanger (AE1): did not block
[5]
  organ distribution of ^14C radioactivity: little radioactivity in brain, heart and skeletal muscle
CFTR [6]; 2 μM extracellular perfusion, after 5 μM forskolin
  effect on membrane current: rapid reduction in current at all membrane potentials
CFTR [6]; FRT, read-out: inhibition of membrane current
  inhibition at 0.2 µM: ~50%
[7]; 5 μM
  effect on membrane potential: small hyperpolarization
[7]; 2 and 5 μM
  effect on membrane potential: did not depolarize membrane potential
CFTR [8]
  IC50: 500 nM
